Data taken from patent US6057311A, “Benzodiazonine derivatives binding to cholecystokinin or gastrin receptors” (James Black Foundation Limited, priority 1996, dated 2000).

How the values were obtained:
CCKA = target: T1, CCKA (Cavia porcellus, UniProt Q63931); experiment: CCKA binding assay, guinea pig pancreas membranes ([125I]-CCK8(S)); conditions: [125I]-CCK8(S) 200 pM, 0.375 μM PD134,308, 150 min at 21±3° C.; for Ki: pH 7.2, read-out: pKi (Guinea pig pancreas) (converted)
T1 construct: The pancreatata were removed from male guinea-pigs; from tissue; host or cells: pancreas of male Dunkin Hartley guinea pigs, membranes
T1 sequence (Q63931 1-430): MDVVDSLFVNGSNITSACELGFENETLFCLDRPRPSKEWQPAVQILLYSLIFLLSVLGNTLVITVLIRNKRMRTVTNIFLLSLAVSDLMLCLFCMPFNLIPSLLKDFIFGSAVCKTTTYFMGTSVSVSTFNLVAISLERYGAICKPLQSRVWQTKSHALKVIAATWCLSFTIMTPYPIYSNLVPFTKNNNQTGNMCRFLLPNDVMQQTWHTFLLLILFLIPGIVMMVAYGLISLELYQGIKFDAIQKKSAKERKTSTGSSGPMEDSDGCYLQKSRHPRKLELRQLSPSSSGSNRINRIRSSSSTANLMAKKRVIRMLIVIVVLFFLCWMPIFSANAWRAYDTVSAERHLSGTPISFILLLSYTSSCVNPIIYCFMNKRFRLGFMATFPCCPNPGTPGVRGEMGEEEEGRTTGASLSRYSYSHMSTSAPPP
Protocol: The compounds of the examples were also tested in a CCKA binding assay as follows:
The pancreatata were removed from male guinea-pigs (200-300 g; Dunkin Hartley) and placed in ice-cold HEPES buffer (pH 7.2@21±3° C.). The pancreatata were homogenised in 40 ml ice-cold HEPES buffer using a polytron (Brinkmann, PT10, setting 10) 4×1 second. The homogenate was centrifuged at 39,800 g for 15 min at 4° C. The supernatant was discarded and the pellet re-suspended using a Teflon-in-glass homogeniser in 20 volumes of fresh buffer and re-centrifuged as above. The final pellet was re-suspended using a Teflon-in-glass homogeniser to a tissue concentration of 1 mg.ml^-1 (original wet weight), and filtered through 500 μm pore-size Nytex mesh.
The membranes (400 μl; containing 0.375 μM PD134,308) were incubated for 150 minutes at 21±3° C. in a final volume of 0.5 ml with HEPES buffer containing [^125 I]-CCK8 (S) (50 μl; 200 pM) and competing compound. Total and non-specific binding of [^125 I]-CCK8 (S) were defined using 50 μl of buffer and 50 μl of 100 nM L-364,718 respectively. The assay was terminated by rapid filtration through pre-soaked Whatman GF/B filters using a Brandell Cell Harvester. The filters were washed (3×3 ml) with ice-cold 50 mM Tris HCl (pH 7.4 at 4° C.) and bound radioactivity was determined by counting (1 min) in a gamma counter.

CCKB receptor = target: T2, CCKB receptor (Mus musculus, UniProt P56481); experiment: radioligand binding assay at the CCKB receptor in mouse cortical membranes ([125I]-CCK8S); conditions: [125I]-CCK8S 200 pM, 150 min at 21±3° C.; for Ki: pH 7.2, read-out: pKi (Mouse cortex) (converted)
T2 construct: The cortex was dissected, weighed and homogenised in 40 ml ice-cold buffer; tissue Charles River (animals); host or cells: cerebral cortex of male CD1 mice, membranes
T2 sequence (P56481 1-453): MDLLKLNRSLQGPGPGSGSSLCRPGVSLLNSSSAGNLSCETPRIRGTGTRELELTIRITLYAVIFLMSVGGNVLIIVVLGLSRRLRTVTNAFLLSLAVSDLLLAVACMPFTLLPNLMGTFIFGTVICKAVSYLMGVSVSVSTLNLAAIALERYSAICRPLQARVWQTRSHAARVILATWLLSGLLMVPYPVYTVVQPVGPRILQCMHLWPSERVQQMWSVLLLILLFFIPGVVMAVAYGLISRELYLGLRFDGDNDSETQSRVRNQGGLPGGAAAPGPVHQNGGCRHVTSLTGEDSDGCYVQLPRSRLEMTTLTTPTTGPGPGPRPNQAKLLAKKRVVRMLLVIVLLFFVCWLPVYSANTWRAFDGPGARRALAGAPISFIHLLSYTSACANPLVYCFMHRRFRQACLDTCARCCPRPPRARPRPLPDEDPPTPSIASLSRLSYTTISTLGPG
Protocol: The compounds of the examples were tested for binding at the CCKB receptor in mouse cortical membranes by means of a radioligand binding assay. The procedure was as follows:
The whole brains from male mice (CD1 22-25 g; Charles River) were removed and placed in ice-cold buffer (pH7.2@21±3° C.) of the following composition (mM); 10 HEPES, 130 NaCl, 4.7 KCl, 5 MgCl2, 1 EDTA and containing 0.25 g.1^-1 bacitracin. The cortex was dissected, weighed and homogenised in 40 ml ice-cold buffer using a Teflon-in-glass homogeniser. The homogenate was centrifuged at 39,800 g for 20 min at 4° C., the supernatant discarded and the pellet resuspended by homogenisation in fresh buffer. The homogenate was recentrifuged (39,800 g; 20 min @4° C.) and the final pellet was resuspended in HEPES buffer to give a tissue concentration of 2 mg.ml^-1 (original wet weight).
The membranes (400 μl) were incubated for 150 min at 21±3° C. in a final volume of 0.5 ml with HEPES buffer containing [^125 I]-CCK8S (0.05 ml; 200 pM NEN 2200 Ci.mmol^-1) and competing compound. Total and non-specific binding of [^125 I]-CCK8S were defined using 0.05 ml of buffer and 0.05 ml of […] L-365,260, respectively. The assay was terminated by rapid filtration through pre-soaked Whatman GF/B filters using a Brandell Cell harvester. The filters were washed (3×3 ml) with ice-cold 50 mM Tris-HCl (pH7.4@4° C.) and bound radioactivity determined by counting (1 min.) in a gamma-counter.

Molecule	Ki (CCKA) [µM]	Ki (CCKB receptor) [µM]	pKi (Guinea pig pancreas) (CCKA; pH 7.2)	pKi (Mouse cortex) (CCKB receptor; pH 7.2)
Cc1cccc(NC(=O)N2CCC(C)c3ccccc3N(Cc3ccccc3)C(=O)C2)c1 (stereo not shown) [Example 10, 1-benzyl-7-methyl-4-(3-methylphenyl)carbamyl-2-oxo-2,3,4,5,6,7-hexahydro-1H-1,4-benzodiazonine]	0.316	2.51		
CC(=O)N1[C@H](CC23CC4CC(CC(C4)C2)C3)C(=O)N(Cc2cccc(N)c2)c2ccccc2C(=O)C[C@H]1C(=O)O [Example 17, (3R,5S)-4-acetyl-3-[(1-adamantyl)methyl]-1-(3-amino)benzyl-2,7-dioxo-2,3,4,5,6,7-hexahydro-1H-1,4-benzodiazonine-5-carboxylate]	6.31	1.26		
Cc1cccc(NC(=O)N2CCC(=O)c3ccccc3N(CC(=O)OC(C)(C)C)C(=O)C2)c1 [Example 1, 1-tert-butyloxycarbonylmethyl-4-(3-methylphenyl)carbamyl-2,7-dioxo-2,3,4,5,6,7-hexahydro-1H-1,4-benzodiazonine]	0.2	10		
CC(=O)N1[C@H](CC23CC4CC(CC(C4)C2)C3)C(=O)N(Cc2ccccc2Cl)c2ccccc2C(=O)C[C@H]1C(=O)NCC(=O)O [Example 63, (3R,5S)-4-acetyl-3-(1-adamantyl)methyl-1-(2-chlorobenzyl)-5-carboxymethylaminocarbonyl-2,7-dioxo-2,3,4,5,6,7-hexahydro-1H-1,4-benzodiazonine]	10	0.1		
CC(=O)N1[C@H](CC23CC4CC(CC(C4)C2)C3)C(=O)N(Cc2ccc(F)cc2)c2ccccc2C(=O)C[C@H]1C(=O)NCC(=O)O [Example 58, (3R,5S)-4-acetyl-3-(1-adamantyl)methyl-1-(4-fluorobenzyl)-5-carboxymethylaminocarbonyl-2,7-dioxo-2,3,4,5,6,7-hexahydro-1H-1,4-benzodiazonine]	7.94	2		
CCC1CCN(C(=O)Nc2cccc(C)c2)CC(=O)N(Cc2ccccc2)c2ccccc21 (stereo not shown) [Example 51, 1-benzyl-7-ethyl-4-(3-methylphenyl)carbamyl-2-oxo-5,2,3,4,5,6,7-hexahydro-1H-1,4-benzodiazonine]	0.794	3.16		
COc1ccc(CN2C(=O)[C@@H](CC34CC5CC(CC(C5)C3)C4)N(C(C)=O)[C@H](C(=O)O)CC(=O)c3ccccc32)cc1 [Example 14, (3R,5S)-4-acetyl-3-[(1-adamantyl)methyl]-1-(4-methoxy)benzyl-2,7-dioxo-2,3,4,5,6,7-hexahydro-1H-1,4-benzodiazonine-5-carboxylate]	3.16	2.51		
CC(=O)N1[C@H](CC23CC4CC(CC(C4)C2)C3)C(=O)N(Cc2ccccc2)c2ccccc2C(=O)C[C@H]1C(=O)N[C@H](C)C(=O)O [Example 25, (3R,5S)-4-acetyl-3-(1-adamantyl)methyl-1-benzyl-5-[(1R)-carboxy]ethylaminocarbonyl-2,7-dioxo-2,3,4,5,6,7-hexahydro-1H-1,4-benzodiazonine]	6.31	0.398		
Cc1cccc(NC(=O)N2CCC(=O)c3ccccc3N(CC(=O)N3CCCC3)C(=O)C2)c1 [Example 6, 4-(3-methylphenyl)carbamyl-2,7-dioxo-1-pyrrolidinoyl-methyl-2,3,4,5,6,7-hexahydro-1H-1,4-benzodiazonine]	5.01	10		
1-benzyl-7-hydroxy-4-(3-methylphenyl)carbamyl-2-oxo-2,3,4,5,6,7-hexahydro- 1H-1,4-benzodiazonine (isomer 1) [Example 7]			5.8	5.0
CC(=O)N1[C@H](C(=O)O)CC(=O)c2ccccc2N(Cc2ccccc2)C(=O)[C@@H]1CC12CC3CC(CC(C3)C1)C2 [Example 12, (3S,5S)-4-acetyl-3-(1-adamantyl)methyl-1-benzyl-2,7-dioxo-2,3,4,5,6,7-hexahydro-1H-1,4-benzodiazonine-5-carboxylate]	10	10		
